Reference: ChEMBL document CHEMBL5647692, “The novel dual PI3K/mTOR inhibitor NVP-BGT226 displays cytotoxic activity in both normoxic and hypoxic hepatocarcinoma cells” (Oncotarget, 2015)
The source made the active and inactive calls. No cut-off for these calls is given here.

Legend:
SNU-475 [1] = assay: Induction of autophagy in human SNU-475 cells assessed as upregulation of LC3A/B II level by Western blot analysis; type: functional, cell-based; conditions: dose 0.1-0.5 µM
SNU-475 [2] = assay: Cytotoxicity against human SNU-475 cells assessed as reduction in cell viability at 0.5 uM incubated for 24 hrs in presence of chloroquine under hypoxia condition by MTT assay; type: functional, cell-based
SNU-449 [3] = assay: Cytotoxicity against human SNU-449 cells assessed as reduction in cell viability incubated for 24 hrs under hypoxia condition by MTT assay; type: functional, cell-based
Mahlavu [4] = assay: Anti-tumor activity against human Mahlavu cells assessed as reduction of VEGF level incubated for 24 hrs under hypoxia condition by Western blot analysis; type: functional, cell-based; conditions: dose 0.01-0.1 µM
[5] = Inhibition of PI3K/Akt/mTOR signaling pathway in human Mahlavu cells assessed as reduction in phosphorylation of GSK3 alpha/beta incubated for 1 hr under normoxia condition by Western blotting analysis; type: cell-based; conditions: dose 0.25-1 µM
Mahlavu [6] = assay: Cytotoxicity against human Mahlavu cells assessed as reduction in cell viability at 0.5 uM incubated for 24 hrs in presence of 3-Methyladenine by MTT assay; type: functional, cell-based
SNU-475 [7] = assay: Induction of autophagy in human SNU-475 cells assessed as increase in lipidation of LC3A/B II level at 0.5 uM incubated for 24 hrs in presence of chloroquine by Western blot analysis; type: functional, cell-based
[8] = Inhibition of PI3K/Akt/mTOR signaling pathway in human SNU-475 cells assessed as reduction in phosphorylation of Akt at 0.001 to 0.01 uM incubated for 1 hr under hypoxia condition by Western blotting analysis; type: cell-based; conditions: dose 0.001-0.01 µM
SNU-475 [9] = assay: Cytotoxicity against human SNU-475 cells assessed as reduction in cell viability at 0.5 uM incubated for 24 hrs in presence of chloroquine by MTT assay; type: functional, cell-based
Mahlavu [10] = assay: Induction of autophagy in human Mahlavu cells assessed as reduction in SQSTM1/p62 level by Western blot analysis; type: functional, cell-based; conditions: dose 0.1-0.5 µM
Hep 3B2 [11] = assay: Induction of apoptosis in human Hep3B cells assessed as cleaved Caspase 7 level at 0.5 uM incubated for 24 hrs by Western blotting analysis; type: functional, cell-based
SNU-449 [12] = assay: Induction of apoptosis in human SNU-449 cells assessed as early apoptotic cells at 1.5 uM incubated for 24 hrs by Annexin-V/7-AAD staining based muse cell analyzer method (reference value: 3.95 %); type: functional
SNU-475 [13] = assay: Cytotoxicity against human SNU-475 cells assessed as reduction in cell viability incubated for 24 hrs under normoxia condition by MTT assay; type: functional, cell-based
Hep 3B2 [14] = assay: Induction of cell cycle arrest in human Hep3B cells assessed as decrease in accumulation of cells in S phase incubated at 0.01 to 0.1 uM for 24 hrs by propidium iodide staining based muse cell analysis; type: functional; conditions: dose 0.01-0.1 µM
SNU-475 [15] = assay: Cytotoxicity against human SNU-475 cells assessed as reduction in cell viability at 0.5 uM incubated for 24 hrs in presence of 3-Methyladenine by MTT assay; type: functional, cell-based
[16] = Inhibition of PI3K/Akt/mTOR signaling pathway in human SNU-475 cells assessed as reduction in phosphorylation of Akt incubated for 1 hr under normoxia condition by Western blotting analysis; type: cell-based; conditions: dose 0.25-1 µM
[17] = Inhibition of PI3K/Akt/mTOR signaling pathway in human SNU-475 cells assessed as reduction in phosphorylation of Akt at 1 to 10 nM incubated for 1 hr under hypoxia condition by Western blotting analysis; type: cell-based; conditions: dose 1-10 nM
[18] = Inhibition of PI3K/Akt/mTOR signaling pathway in human SNU-475 cells assessed as reduction in S6 phosphorylation at 1 to 10 nM incubated for 1 hr under normoxia condition by Western blotting analysis; type: cell-based; conditions: dose 1-10 nM
[19] = Inhibition of PI3K/Akt/mTOR signaling pathway in human SNU-475 cells assessed as reduction in phosphorylation of GSK3 alpha/beta incubated for 1 hr under normoxia condition by Western blotting analysis; type: cell-based; conditions: dose 0.25-1 µM
[20] = Inhibition of PI3K/Akt/mTOR signaling pathway in human Mahlavu cells assessed as reduction in S6 phosphorylation at 1 to 10 nM incubated for 1 hr under hypoxia condition by Western blotting analysis; type: cell-based; conditions: dose 1-10 nM
[21] = Inhibition of PI3K/Akt/mTOR signaling pathway in human SNU-475 cells assessed as reduction in phosphorylation of mTORC1 substrate S6 incubated for 1 hr under normoxia condition by Western blotting analysis; type: cell-based; conditions: dose 0.25-1 µM
Mahlavu [22] = assay: Induction of apoptosis in human Mahlavu cells assessed as late apoptotic cells at 0.66 uM incubated for 24 hrs by Annexin-V/7-AAD staining based muse cell analyzer method (reference value: 2.24 %); type: functional
[23] = Inhibition of PI3K/Akt/mTOR signaling pathway in human SNU-475 cells assessed as reduction in phosphorylation of Akt at 1 to 10 nM incubated for 1 hr under normoxia condition by Western blotting analysis; type: cell-based; conditions: dose 1-10 nM
Mahlavu [24] = assay: Cytotoxicity against human Mahlavu cells assessed as reduction in cell viability incubated for 24 hrs under normoxia condition by MTT assay; type: functional, cell-based
Mahlavu [25] = assay: Induction of autophagy in human Mahlavu cells assessed as increased expression of LC3A/B II level incubated for 24 hrs under hypoxia condition by Western blot analysis; type: functional, cell-based; conditions: dose 0.1-0.5 µM
SNU-449 [26] = assay: Cytotoxicity against human SNU-449 cells assessed as reduction in cell viability incubated for 24 hrs under normoxia condition by MTT assay; type: functional, cell-based
Mahlavu [27] = assay: Induction of apoptosis in human Mahlavu cells assessed as chromatin condensation under normoxia condition at 0.1 to 0.5 uM incubated for 24 hrs by DAPI staining based fluorescence microscope analysis; type: functional, cell-based; conditions: dose 0.1-0.5 µM
SNU-475 [28] = assay: Induction of autophagy in human SNU-475 cells assessed as decreased expression of SQSTM1/p62 level incubated for 24 hrs under hypoxia condition by Western blot analysis; type: functional, cell-based; conditions: dose 0.1-0.5 µM
HepG2 = assay: Cytotoxicity against human HepG2 cells assessed as reduction in cell viability incubated for 48 hrs by MTT assay; type: functional, cell-based; conditions: HepG2, 48 h
[29] = Inhibition of PI3K/Akt/mTOR signaling pathway in human Hep3B cells assessed as reduction in phosphorylation of Akt incubated for 1 hr under normoxia condition by Western blotting analysis; type: cell-based; conditions: dose 0.25-1 µM
SNU-475 [30] = assay: Induction of autophagy in human SNU-475 cells assessed as increase in LC3I to LC3II conversion at 0.5 uM incubated for 24 hrs under hypoxia condition by Western blot analysis; type: functional, cell-based
[31] = Inhibition of PI3K/Akt/mTOR signaling pathway in human HepG2 cells assessed as reduction in phosphorylation of GSK3 alpha/beta incubated for 1 hr under normoxia condition by Western blotting analysis; type: cell-based; conditions: dose 0.25-1 µM
[32] = Inhibition of PI3K/Akt/mTOR signaling pathway in human Mahlavu cells assessed as reduction in S6 phosphorylation at 1 to 10 nM incubated for 1 hr under normoxia condition by Western blotting analysis; type: cell-based; conditions: dose 1-10 nM
SNU-475 [33] = assay: Induction of apoptosis in human SNU-475 cells assessed as cleaved Caspase 9 level at 0.5 uM incubated for 24 hrs by Western blotting analysis; type: functional, cell-based
SNU-475 [34] = assay: Cytotoxicity against human SNU-475 cells assessed as reduction in cell viability incubated for 48 hrs by MTT assay; type: functional, cell-based; conditions: SNU-475, 48 h

With COc1ccc(-c2ccc3ncc4c(c3c2)n(-c2ccc(N3CCNCC3)c(C(F)(F)F)c2)c(=O)n4C)cn1 [BGT-226 FREE BASE] the Activity (SNU-475 [1]) was “Dose-Dependent Effect”, the Activity (SNU-475 [2]) was “Active” and the Activity (SNU-449 [3]) was “Active”. For the same molecule, the Activity (Mahlavu [4]) was “Dose-Dependent Effect”, the inhibition [5] was “Dose-Dependent Effect” and the Activity (Mahlavu [6]) was “Active”. The Activity (SNU-475 [7]) was “Active”, the inhibition [8] was “Active” and the Activity (SNU-475 [9]) was “Active”. For the same molecule, the Activity (Mahlavu [10]) was “Dose-Dependent Effect”, the Activity (Hep 3B2 [11]) was “Active” and the Activity (SNU-449 [12]) was 18.2%. The Activity (SNU-475 [13]) was “Active”, the Activity (Hep 3B2 [14]) was “Active” and the Activity (SNU-475 [15]) was “Active”. For the same molecule, the inhibition [16] was “Dose-Dependent Effect”, the inhibition [17] was “Active” and the inhibition [18] was “Active”. For the same molecule, the inhibition [19] was “Dose-Dependent Effect”, the inhibition [20] was “Active” and the inhibition [21] was “Dose-Dependent Effect”. For the same molecule, the Activity (Mahlavu [22]) was 1.99%, the inhibition [23] was “Active” and the Activity (Mahlavu [24]) was “Active”. The Activity (Mahlavu [25]) was “Dose-Dependent Effect”, the Activity (SNU-449 [26]) was “Active” and the Activity (Mahlavu [27]) was “Active”. The Activity (SNU-475 [28]) was “Dose-Dependent Effect”, the IC50 (HepG2) was 1.35 µM and the inhibition [29] was “Dose-Dependent Effect”. For the same molecule, the Activity (SNU-475 [30]) was “Dose-Dependent Effect”, the inhibition [31] was “Dose-Dependent Effect” and the inhibition [32] was “Active”. The Activity (SNU-475 [33]) was “Active” and the IC50 (SNU-475 [34]) was 1.01 µM.
